Structures are written as SMILES.

The target in the assay is Prothrombin (Homo sapiens) (UniProt P00734). The assay can be described thus: Apparent association constant towards thrombin.

Take `COc1ccc2c(Cc3ccc(O[C@@H]4CCCC[C@H]4N4CCCCC4)cc3)c(-c3ccc(OCCN4CCCC4)cc3)sc2c1`: the K ass was 3.83e+06 l M-1. The figure for `Oc1ccc2c(Cc3ccc(O[C@@H]4CCCC[C@H]4n4ccnc4)cc3)c(-c3ccc(OCCN4CCCC4)cc3)sc2c1` is 8.08e+06 l M-1; for `Oc1ccc2c(Cc3ccc(O[C@@H]4CCC[C@H]4N4CCCCC4)cc3)c(-c3ccc(OCCN4CCCC4)cc3)sc2c1` it is 4.73e+07 l M-1; for `Oc1ccc2c(Cc3ccc(O[C@@H]4CCCC[C@H]4N4CCCC4)c(O)c3)c(-c3ccc(OCCN4CCCC4)cc3)sc2c1` it is 1.12e+07 l M-1. For `O=C(c1ccc(O[C@@H]2CCCC[C@H]2N2CCCCCC2)cc1)c1c(-c2ccc(OCCN3CCCC3)cc2)sc2ccccc12`, the K ass is 490000 l M-1. For `Oc1ccc2c(Cc3ccc(O[C@@H]4CCCC[C@H]4N4CCCCC4)c(F)c3)c(-c3ccc(OCCN4CCCC4)cc3)sc2c1`, the K ass was 2.03e+08 l M-1. Take `COc1cc(Cc2c(-c3ccc(OCCN4CCCC4)cc3)sc3cc(O)ccc23)ccc1O[C@@H]1CCCC[C@H]1N(C)C`: the K ass is 1.46e+08 l M-1. For `COc1cccc2c(Cc3ccc(O[C@@H]4CCCC[C@H]4N4CCCCC4)cc3)c(-c3ccc(OCCN4CCCC4)cc3)sc12` the value was 118000 l M-1; for `Oc1ccc2c(Cc3ccc(O[C@@H]4CCCC[C@H]4N4CCCCC4)cc3)c(-c3ccc(OCCN4CCCC4)cc3)sc2c1`, 2.12e+08 l M-1; for `O=C(c1ccc(O[C@@H]2CCCC[C@H]2N2CCCCC2)cc1)c1c(-c2ccc(OCCN3CCCC3)cc2)sc2ccccc12`, 1.17e+06 l M-1. For `Oc1cccc2c(Cc3ccc(O[C@@H]4CCCC[C@H]4N4CCCCC4)cc3)c(-c3ccc(OCCN4CCCC4)cc3)sc12` the value was 1.08e+06 l M-1. For `Oc1ccc2c(Cc3ccc(O[C@@H]4CCCC[C@H]4N4CCOCC4)cc3)c(-c3ccc(OCCN4CCCC4)cc3)sc2c1` the value was 1.81e+07 l M-1.

`Cc1cc(Cc2c(-c3ccc(OCCN4CCCC4)cc3)sc3cc(O)ccc23)ccc1O[C@@H]1CCCC[C@H]1N1CCCC1`: the K ass is 3.49e+08 l M-1. The figure for `Oc1ccc2sc(-c3ccc(OCCN4CCCC4)cc3)c(Cc3ccc(OC4CCCC[C@H]4N4CCCCC4)cc3)c2c1` (stereo partly drawn) is 1.39e+07 l M-1. `CCN(CC)[C@@H]1CCCC[C@H]1Oc1ccc(Cc2c(-c3ccc(OCCN4CCCC4)cc3)sc3cc(O)ccc23)cc1`: the K ass was 4.98e+07 l M-1. The figure for `Oc1ccc2c(Cc3ccc(O[C@@H]4CCCC[C@H]4N4CCCC4)c(F)c3)c(-c3ccc(OCCN4CCCC4)cc3)sc2c1` is 1.21e+08 l M-1; for `c1ccc2c(Cc3ccc(O[C@@H]4CCCC[C@H]4N4CCCCC4)cc3)c(-c3ccc(OCCN4CCCC4)cc3)sc2c1` it is 2.04e+07 l M-1; for `Oc1ccc2c(Cc3ccc(O[C@@H]4CCCC[C@H]4N4CCCCCC4)cc3)c(-c3ccc(OCCN4CCCC4)cc3)sc2c1` it is 7.48e+07 l M-1. For `COc1cc(Cc2c(-c3ccc(OCCN4CCCC4)cc3)sc3cc(O)ccc23)ccc1O[C@@H]1CCCC[C@H]1N1CCCC1` the value was 3.09e+08 l M-1; for `Oc1ccc2c(Cc3ccc(O[C@@H]4CCCC[C@H]4N4CCCC4)c(C(F)(F)F)c3)c(-c3ccc(OCCN4CCCC4)cc3)sc2c1`, 6.84e+07 l M-1; for `CN(C)[C@@H]1CCCC[C@H]1Oc1ccc(Cc2c(-c3ccc(OCCN4CCCC4)cc3)sc3cc(O)ccc23)cc1`, 5.11e+07 l M-1.

Take `Oc1cccc2sc(-c3ccc(OCCN4CCCC4)cc3)c(Cc3ccc(O[C@@H]4CCCC[C@H]4N4CCCCC4)cc3)c12`: the K ass was 1.73e+06 l M-1. The figure for `Oc1ccc2c(Cc3ccc(O[C@@H]4CCCC[C@H]4N4CCCC4)cc3)c(-c3ccc(OCCN4CCCC4)cc3)sc2c1` is 2.18e+08 l M-1. For the compound `COc1cc(Cc2c(-c3ccc(OCCN4CCCC4)cc3)sc3cc(O)ccc23)ccc1O[C@@H]1CCCC[C@H]1N1CCCCC1`, the K ass is 1.16e+08 l M-1.

In the case of `Oc1ccc2c(Cc3ccc(O[C@@H]4CCCC[C@H]4N4CCCC4)c(Br)c3)c(-c3ccc(OCCN4CCCC4)cc3)sc2c1`, the K ass was 2.8e+08 l M-1. `COc1ccc2sc(-c3ccc(OCCN4CCCC4)cc3)c(Cc3ccc(O[C@@H]4CCCC[C@H]4N4CCCCC4)cc3)c2c1`: the K ass is 3.65e+07 l M-1. For `O=C(c1ccc(O[C@@H]2CCCC[C@H]2N2CCCC2)cc1)c1c(-c2ccc(OCCN3CCCC3)cc2)sc2ccccc12` the value was 510000 l M-1; for `Oc1ccc2c(Cc3ccc(O[C@@H]4CCCC[C@H]4N4CCCCC4)nc3)c(-c3ccc(OCCN4CCCC4)cc3)sc2c1`, 9.61e+07 l M-1.

The values above are taken from ChEMBL document CHEMBL1132507, “Dibasic benzo[B]thiophene derivatives as a novel class of active site directed thrombin inhibitors: 4. SAR studies on the conformationally restricted C3-side chain of hydroxybenzo[B]thiophenes” (Bioorg Med Chem Lett, 1999).
